Positions count from the first letter of the chain named.
Tests used:
[1] = target: T1, Aurora B (without INCENP) (Homo sapiens, UniProt Q96GD4); test: Active site directed binding competition assay, KD (DiscoveRx)
T1 construct: purchased DiscoveRx scanMAX
Description: (§1) The kinome profiling of compound 9 was conducted by DiscoveRx. In total, 456 kinases were assayed (scanMAX). For most assays, kinase-tagged T7 phage strains were grown in parallel in 24-well blocks in an E. coli host derived from the BL21 strain. E. coli were grown to log-phase and infected with T7 phage from a frozen stock (multiplicity of infection=0.4) and incubated with shaking at 32° C. until lysis (90-150 minutes). The lysates were centrifuged (6000 g) and filtered (0.2 μm) to remove cell debris. The remaining kinases were produced in HEK-293 cells and subsequently tagged with DNA for qPCR detection. […] The liganded beads were blocked with excess biotin and washed with blocking buffer (SeaBlock (Pierce), 1% BSA, 0.05% Tween 20, 1 mM DTT) to remove unbound ligand and to reduce non-specific phage binding. […] Test compounds were prepared as 40× stocks in 100% DMSO and directly diluted into the assay. All reactions were performed in polypropylene 384-well plates in a final volume of 0.04 ml. […] The kinase concentration in the eluates was measured by qPCR. […] was screened at 1 μM, and results for primary screen binding interactions were reported as % of control (PoC). PoC=(test compound signal−positive control signal)/(DMSO signal−positive control signal). PoC values at 1 μM 9 for all kinases were visualized using TREEspot (DiscoveRx). […] KD values were determined with a standard dose-response curve using the Hill equation.

Aurora C = target: T2, Aurora C (Homo sapiens, UniProt Q9UQB9); test: as above
T2 construct: purchased DiscoveRx scanMAX
T2 sequence (Q9UQB9 1-309): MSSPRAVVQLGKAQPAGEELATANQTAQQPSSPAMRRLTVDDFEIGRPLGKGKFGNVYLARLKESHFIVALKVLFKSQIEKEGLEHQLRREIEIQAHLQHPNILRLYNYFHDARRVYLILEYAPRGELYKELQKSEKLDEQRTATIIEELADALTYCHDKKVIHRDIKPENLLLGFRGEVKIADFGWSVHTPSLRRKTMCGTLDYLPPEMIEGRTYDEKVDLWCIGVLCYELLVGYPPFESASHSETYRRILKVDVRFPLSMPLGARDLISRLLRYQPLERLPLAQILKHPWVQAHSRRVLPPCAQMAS
Description: as §1

456 kinases = test: Kinome scan of 456 kinases (scanMAX); assay type: binding; conditions: screened at 1 μM
Description: as §1, with “signal).” for “signal). PoC values at 1 μM 9 for all kinases were visualized using TREEspot (DiscoveRx).”

GFP-Aurora A-Arg137Ala = target: T3, GFP-Aurora A-Arg137Ala (Homo sapiens, UniProt O14965, R137A); test: Phenotypic rescue, cells expressing mutant Aurora A; assay type: cell-based
T3 construct: All Aurora A clones were constructed using full-length Aurora A as a template; expressed in transfected cells; host or cells: HeLa Kyoto
T3 sequence (O14965 1-403 R137A): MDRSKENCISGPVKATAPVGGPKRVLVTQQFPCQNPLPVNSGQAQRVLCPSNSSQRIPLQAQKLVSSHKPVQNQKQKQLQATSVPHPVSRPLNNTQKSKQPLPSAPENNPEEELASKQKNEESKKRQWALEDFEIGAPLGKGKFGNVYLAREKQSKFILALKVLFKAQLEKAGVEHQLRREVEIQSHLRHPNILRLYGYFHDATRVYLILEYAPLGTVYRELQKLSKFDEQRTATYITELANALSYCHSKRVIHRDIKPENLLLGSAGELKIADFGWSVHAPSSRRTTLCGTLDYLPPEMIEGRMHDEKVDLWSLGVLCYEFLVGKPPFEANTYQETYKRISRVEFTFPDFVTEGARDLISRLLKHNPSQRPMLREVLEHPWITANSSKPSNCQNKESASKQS
Description: (§2) HeLa Kyoto cells were cultured in high-glucose DMEM with GlutaMAX (Life Technologies) media supplemented with 10% fetal calf serum (FCS) in a humidified 5% CO2 incubator at 37° C. For plasmid transfections, cells were seeded at 80-90% confluence. 4 μg of plasmid DNA in 100 μl OptiMEM and 4 μl of Lipofectamine 2000 (Life Technologies) in 100 μl OptiMEM were incubated in parallel for 5 minutes, mixed for 20 minutes and added to each well. All Aurora A clones were constructed using full-length Aurora A as a template with appropriate PCR primer pairs. […] GFP-Aurora AR137A and GFP-Aurora AW277A were engineered using a site directed mutagenesis kit (Agilent Technologies, no. 210515) with appropriate primers. For determining the mitotic index and the chromosome misalignment phenotype, cells were incubated with various concentrations of compounds for 20 h before analysis. Cells were likewise treated with 0.25 μM MLN8237 (Selleckchem, no. S1133) or 5 μM ZM447439 (Selleckchem, no. S1103). For flow cytometry analysis, 50 nM MLN8037 and 2.5 μM ZM447439 were used. […] To assess the impact of compound 9 on cell cycle progression, DNA content was analyzed after propidium iodide staining using FACS (BD Accuri C6 flow cytometer).

GFP-Aurora A-Trp277Ala = target: T4, GFP-Aurora A-Trp277Ala (Homo sapiens, UniProt O14965, W277A); test: as above; assay type: cell-based
T4 construct: All Aurora A clones were constructed using full-length Aurora A as a template; expressed in transfected cells; host or cells: HeLa Kyoto
T4 sequence (O14965 1-403 W277A): T3 sequence (O14965 1-403 R137A) with A137R, W277A
Description: as §2

T1 sequence (Q96GD4 whole entry): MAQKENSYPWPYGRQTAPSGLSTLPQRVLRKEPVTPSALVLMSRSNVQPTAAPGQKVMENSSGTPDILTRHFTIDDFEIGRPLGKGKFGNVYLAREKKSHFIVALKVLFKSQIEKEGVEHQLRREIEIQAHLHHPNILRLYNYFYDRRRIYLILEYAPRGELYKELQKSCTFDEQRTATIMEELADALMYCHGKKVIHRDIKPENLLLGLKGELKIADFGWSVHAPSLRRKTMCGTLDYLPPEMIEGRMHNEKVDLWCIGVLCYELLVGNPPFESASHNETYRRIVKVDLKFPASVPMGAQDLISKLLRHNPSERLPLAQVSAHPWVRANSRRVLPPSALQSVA

For `CCc1ccc(N=C2SC(=Cc3ccnc(Nc4ccc(C(=O)O)cn4)c3)C(=O)N2C)cc1` [Compound 9], the Kd [1] was 10 nM, the Kd (Aurora C) was 11 nM and the kinome selectivity (456 kinases) was “remarkably selective”. The “sensitivity of GFP-Aurora A-Arg137Ala to inhibitor” value (GFP-Aurora A-Arg137Ala) was “insensitive” and the “sensitivity of GFP-Aurora A-Trp277Ala to inhibitor” value (GFP-Aurora A-Trp277Ala) was “insensitive”.
